From publication PMC8632988, “Inhibition of SYK and cSrc kinases can protect bone and cartilage in preclinical models of osteoarthritis and rheumatoid arthritis” (Scientific Reports, 2021)
Several values for one entry are separate records, joined by “and”; a condition that tells them apart may be missing. Identical values can stand only once. Like-named read-outs stand apart in the source and are kept apart here.

Columns and labels:
[1] = Pharmacokinetics after single oral administration to rats; type: in vivo, rat; settings: for Tmax / AUC(0-inf) / AUC(0-t) / Cmax / half-life / k el / AUC: male, Wistar, rat, plasma; for Tmax / AUC(0-inf) / AUC(0-t) / Cmax / half-life: po; for half-life: read-out: Terminal t1/2, Mean (converted); for AUC: read-out: AUC48
Experimental: Experiments were performed at ChemPartner, Shanghai, China and approved by Institutional Ethics Committee (IEC) of ChemPartner. Male Wistar 10–12 weeks old rats with body weights of 185–220 g and male New Zealand rabbits with body weights of 2.0–2.3 kg were purchased from Shanghai SLAC Laboratory Animal Co., Ltd. MT-SYK-03 was administered to the three groups of rats (six rats per group) via oral gavage at 10 mL/kg concentration, and in rabbits 5 mL/kg concentration. Blood samples were kept on ice and centrifuged (2000 g, 4 ℃, 5 min) within 15 min post sampling.

CAMK1g = biological target: T1, CAMK1g (Homo sapiens, UniProt Q96NX5); test: Kinase selectivity profile assay; type: biochemical; settings: 500 nM; relative to DMSO; read-out: Residual enzymatic activity
T1 construct: purchased Reaction Biology Corporation
Description: (§1) Kinase activity data was expressed as the percent remaining kinase activity in test samples compared to vehicle (dimethyl sulfoxide) reactions based on the radioactivity of reaction products (see Table S2). Experiment was replicated twice.

SIK2 = biological target: T2, SIK2 (Homo sapiens, UniProt Q9H0K1); test: Kinase selectivity profile assay; type: biochemical
T2 construct: purchased Reaction Biology Corporation (Malvern, PA, USA)
T2 sequence (Q9H0K1 whole entry): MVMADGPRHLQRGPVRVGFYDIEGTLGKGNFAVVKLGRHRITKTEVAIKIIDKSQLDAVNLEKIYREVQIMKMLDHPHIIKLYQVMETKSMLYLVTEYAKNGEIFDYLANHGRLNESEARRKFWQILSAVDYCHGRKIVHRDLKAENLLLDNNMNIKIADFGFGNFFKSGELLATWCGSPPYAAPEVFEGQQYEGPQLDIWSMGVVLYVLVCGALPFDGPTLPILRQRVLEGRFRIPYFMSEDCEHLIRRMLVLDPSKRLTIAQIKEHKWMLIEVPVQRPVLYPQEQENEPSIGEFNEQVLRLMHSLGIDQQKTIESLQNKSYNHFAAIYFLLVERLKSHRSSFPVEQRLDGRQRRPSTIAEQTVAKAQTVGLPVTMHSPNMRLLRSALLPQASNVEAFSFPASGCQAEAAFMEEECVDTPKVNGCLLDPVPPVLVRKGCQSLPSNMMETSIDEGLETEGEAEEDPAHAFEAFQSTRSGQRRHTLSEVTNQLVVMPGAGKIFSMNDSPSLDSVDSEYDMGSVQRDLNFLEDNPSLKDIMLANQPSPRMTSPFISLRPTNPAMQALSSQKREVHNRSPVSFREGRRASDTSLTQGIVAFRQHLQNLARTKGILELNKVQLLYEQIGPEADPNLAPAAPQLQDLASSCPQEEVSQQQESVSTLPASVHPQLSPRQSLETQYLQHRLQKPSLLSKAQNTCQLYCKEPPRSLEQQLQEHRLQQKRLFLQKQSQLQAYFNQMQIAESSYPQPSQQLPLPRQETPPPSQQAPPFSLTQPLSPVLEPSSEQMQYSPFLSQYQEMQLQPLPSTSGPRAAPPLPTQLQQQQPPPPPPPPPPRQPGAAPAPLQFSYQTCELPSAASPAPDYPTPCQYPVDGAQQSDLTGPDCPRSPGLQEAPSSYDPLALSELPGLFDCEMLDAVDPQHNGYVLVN
Description: as §1

IKKa/CHUK = biological target: T3, IKKa/CHUK (Homo sapiens, UniProt O15111); test: Kinase selectivity profile assay; type: biochemical; settings: 500 nM; relative to DMSO; read-out: Residual enzymatic activity
T3 construct: purchased Reaction Biology Corporation
T3 sequence (O15111 whole entry): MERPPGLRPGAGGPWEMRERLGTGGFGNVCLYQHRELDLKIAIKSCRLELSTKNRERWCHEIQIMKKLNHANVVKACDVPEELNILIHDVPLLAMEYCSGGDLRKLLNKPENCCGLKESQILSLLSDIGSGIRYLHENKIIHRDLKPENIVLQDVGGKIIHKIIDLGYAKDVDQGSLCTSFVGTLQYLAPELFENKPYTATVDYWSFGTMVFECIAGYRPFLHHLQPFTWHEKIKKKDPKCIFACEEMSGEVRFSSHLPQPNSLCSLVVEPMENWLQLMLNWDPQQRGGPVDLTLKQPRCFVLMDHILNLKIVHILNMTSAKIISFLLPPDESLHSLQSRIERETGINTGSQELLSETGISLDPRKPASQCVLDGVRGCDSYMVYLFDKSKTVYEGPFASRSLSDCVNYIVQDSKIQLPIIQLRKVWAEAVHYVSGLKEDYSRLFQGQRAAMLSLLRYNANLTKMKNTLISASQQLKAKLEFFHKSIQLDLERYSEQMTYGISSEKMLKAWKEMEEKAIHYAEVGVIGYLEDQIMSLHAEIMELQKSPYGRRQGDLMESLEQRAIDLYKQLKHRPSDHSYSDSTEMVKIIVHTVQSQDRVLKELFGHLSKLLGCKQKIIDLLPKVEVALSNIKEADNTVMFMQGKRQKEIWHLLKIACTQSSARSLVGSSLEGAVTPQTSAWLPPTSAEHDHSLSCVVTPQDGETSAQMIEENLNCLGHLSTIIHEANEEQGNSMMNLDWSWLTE
Description: as §1

NEK11 = biological target: T4, NEK11 (Homo sapiens, UniProt Q8NG66); test: Kinase selectivity profile assay; type: biochemical
T4 construct: purchased Reaction Biology Corporation (Malvern, PA, USA)
T4 sequence (Q8NG66 whole entry): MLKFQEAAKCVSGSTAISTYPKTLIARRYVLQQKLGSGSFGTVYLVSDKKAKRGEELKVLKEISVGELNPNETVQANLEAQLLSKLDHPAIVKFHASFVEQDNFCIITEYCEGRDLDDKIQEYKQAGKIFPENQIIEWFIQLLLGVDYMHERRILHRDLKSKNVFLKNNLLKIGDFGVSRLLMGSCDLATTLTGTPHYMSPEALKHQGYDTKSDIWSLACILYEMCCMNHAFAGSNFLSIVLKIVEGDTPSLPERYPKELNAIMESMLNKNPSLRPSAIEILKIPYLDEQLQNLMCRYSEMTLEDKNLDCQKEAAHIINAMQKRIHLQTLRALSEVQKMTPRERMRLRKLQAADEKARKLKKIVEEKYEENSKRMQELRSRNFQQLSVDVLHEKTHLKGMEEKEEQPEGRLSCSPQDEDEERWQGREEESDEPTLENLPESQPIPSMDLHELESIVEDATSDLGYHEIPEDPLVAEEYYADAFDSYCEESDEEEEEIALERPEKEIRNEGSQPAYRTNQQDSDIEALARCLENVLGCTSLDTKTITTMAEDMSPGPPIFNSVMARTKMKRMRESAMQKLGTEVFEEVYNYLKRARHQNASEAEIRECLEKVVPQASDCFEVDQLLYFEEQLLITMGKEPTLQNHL
Description: as §1

FGFR2 = biological target: T5, FGFR2 (Homo sapiens, UniProt P21802); test: Kinase selectivity profile assay; type: biochemical; settings: 500 nM, relative to DMSO
T5 construct: purchased Reaction Biology Corporation
T5 sequence (P21802 22-821): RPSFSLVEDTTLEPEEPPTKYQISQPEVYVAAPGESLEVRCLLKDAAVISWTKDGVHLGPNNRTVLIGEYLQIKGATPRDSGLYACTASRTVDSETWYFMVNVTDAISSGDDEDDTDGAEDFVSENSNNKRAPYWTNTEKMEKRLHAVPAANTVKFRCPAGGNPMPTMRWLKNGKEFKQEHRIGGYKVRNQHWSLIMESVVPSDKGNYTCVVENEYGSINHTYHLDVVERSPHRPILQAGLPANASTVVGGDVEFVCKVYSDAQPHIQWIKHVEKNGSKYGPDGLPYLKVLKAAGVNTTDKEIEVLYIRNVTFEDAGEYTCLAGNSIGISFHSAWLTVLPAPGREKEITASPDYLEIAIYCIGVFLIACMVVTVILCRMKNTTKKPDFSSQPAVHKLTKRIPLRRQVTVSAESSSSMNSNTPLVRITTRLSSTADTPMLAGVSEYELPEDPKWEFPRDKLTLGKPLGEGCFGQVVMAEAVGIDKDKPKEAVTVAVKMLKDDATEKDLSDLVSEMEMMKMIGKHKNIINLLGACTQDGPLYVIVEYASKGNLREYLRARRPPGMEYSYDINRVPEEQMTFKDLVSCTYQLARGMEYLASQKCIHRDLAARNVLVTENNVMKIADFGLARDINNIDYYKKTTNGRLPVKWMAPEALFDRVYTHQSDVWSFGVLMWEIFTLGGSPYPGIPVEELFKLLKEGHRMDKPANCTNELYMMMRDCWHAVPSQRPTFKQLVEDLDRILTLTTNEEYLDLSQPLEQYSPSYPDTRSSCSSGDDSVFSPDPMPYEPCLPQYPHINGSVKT
Description: as §1

JAK2 = biological target: T6, JAK2 (Homo sapiens, UniProt O60674); test: Kinase selectivity profile assay; type: biochemical
T6 construct: purchased Reaction Biology Corporation (assay service)
T6 sequence (O60674 whole entry): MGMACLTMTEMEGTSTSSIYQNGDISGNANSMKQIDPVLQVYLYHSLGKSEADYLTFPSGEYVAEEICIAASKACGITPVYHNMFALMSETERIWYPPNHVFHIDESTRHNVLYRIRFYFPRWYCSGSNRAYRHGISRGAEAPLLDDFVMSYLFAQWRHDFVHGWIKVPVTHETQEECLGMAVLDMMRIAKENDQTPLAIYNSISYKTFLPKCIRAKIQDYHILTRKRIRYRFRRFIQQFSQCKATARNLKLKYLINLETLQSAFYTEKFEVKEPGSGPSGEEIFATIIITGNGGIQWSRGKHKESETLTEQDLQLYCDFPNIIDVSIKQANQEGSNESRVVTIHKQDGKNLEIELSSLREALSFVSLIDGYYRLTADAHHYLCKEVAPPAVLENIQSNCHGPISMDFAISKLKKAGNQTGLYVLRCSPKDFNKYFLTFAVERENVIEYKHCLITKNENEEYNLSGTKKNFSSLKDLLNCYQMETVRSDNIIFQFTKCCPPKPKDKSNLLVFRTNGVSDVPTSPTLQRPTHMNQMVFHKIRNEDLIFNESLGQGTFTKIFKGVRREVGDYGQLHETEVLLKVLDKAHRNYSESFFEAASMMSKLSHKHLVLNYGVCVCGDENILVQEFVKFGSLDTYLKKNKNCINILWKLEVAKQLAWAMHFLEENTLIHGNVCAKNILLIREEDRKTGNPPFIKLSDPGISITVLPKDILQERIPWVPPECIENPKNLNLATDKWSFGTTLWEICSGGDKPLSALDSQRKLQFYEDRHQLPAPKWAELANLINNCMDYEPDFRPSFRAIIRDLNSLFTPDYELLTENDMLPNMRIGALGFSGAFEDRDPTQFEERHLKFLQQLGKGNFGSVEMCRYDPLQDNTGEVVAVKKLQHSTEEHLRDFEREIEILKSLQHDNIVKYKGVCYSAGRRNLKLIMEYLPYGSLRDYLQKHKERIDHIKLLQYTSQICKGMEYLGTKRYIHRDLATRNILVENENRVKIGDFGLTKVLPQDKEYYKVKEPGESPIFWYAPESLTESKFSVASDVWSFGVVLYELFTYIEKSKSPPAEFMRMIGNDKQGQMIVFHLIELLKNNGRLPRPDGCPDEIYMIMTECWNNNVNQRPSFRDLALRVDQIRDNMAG
Description: as §1

JNK1 = biological target: T7, JNK1 (Homo sapiens, UniProt P45983); test: Kinase selectivity profile assay; type: biochemical; settings: 500 nM; relative to DMSO; read-out: Residual enzymatic activity
T7 construct: purchased Reaction Biology Corporation
Description: as §1

PYK2 = biological target: T8, PYK2 (Homo sapiens, UniProt Q14289); test: Kinase selectivity profile assay; type: biochemical; settings: 500 nM; relative to DMSO; read-out: Residual enzymatic activity
T8 construct: purchased Reaction Biology Corporation
Description: as §1

PAK3 = biological target: T9, PAK3 (Homo sapiens, UniProt O75914); test: Kinase selectivity profile assay; type: biochemical; settings: 500 nM; relative to DMSO; read-out: Residual enzymatic activity
T9 construct: purchased Reaction Biology Corporation
Description: as §1

FYN = biological target: T10, FYN (Homo sapiens, UniProt P06241); test: Kinase selectivity profile assay; type: biochemical
T10 construct: purchased Reaction Biology Corporation (assay service)
T10 sequence (P06241 whole entry): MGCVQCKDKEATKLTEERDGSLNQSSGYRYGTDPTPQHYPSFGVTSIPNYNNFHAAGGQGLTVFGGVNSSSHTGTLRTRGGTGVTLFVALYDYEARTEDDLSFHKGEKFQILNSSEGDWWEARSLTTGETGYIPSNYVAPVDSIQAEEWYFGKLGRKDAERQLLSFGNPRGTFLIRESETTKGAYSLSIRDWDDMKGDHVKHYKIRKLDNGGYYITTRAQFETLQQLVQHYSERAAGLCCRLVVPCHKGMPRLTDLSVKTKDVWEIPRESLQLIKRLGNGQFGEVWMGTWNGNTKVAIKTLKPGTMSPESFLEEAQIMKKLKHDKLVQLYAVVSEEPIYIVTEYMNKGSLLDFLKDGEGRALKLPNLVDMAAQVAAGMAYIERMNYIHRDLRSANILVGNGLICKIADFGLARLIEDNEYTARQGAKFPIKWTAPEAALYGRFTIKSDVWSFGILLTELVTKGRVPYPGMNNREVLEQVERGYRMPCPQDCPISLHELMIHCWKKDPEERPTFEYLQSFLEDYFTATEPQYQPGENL
Description: as §1

ROS/ROS1 = biological target: T11, ROS/ROS1 (Homo sapiens, UniProt P08922); test: Kinase selectivity profile assay; type: biochemical
T11 construct: purchased Reaction Biology Corporation (Malvern, PA, USA)
Description: as §1

CDK9/cyclin K = biological target: T12, CDK9/cyclin K (Homo sapiens, UniProt P50750); test: Kinase selectivity profile assay; type: biochemical; settings: 500 nM; relative to DMSO; read-out: Residual enzymatic activity
T12 construct: purchased Reaction Biology Corporation
Description: as §1

[2] = 500 nM, relative to DMSO, read-out: Residual enzymatic activity
[3] = 10-dose mode, threefold serial dilution from 10 μM

COc1cc(Nc2ncnc(Nc3cc4c(cn3)NC(=O)C(C)(C)O4)n2)cc(OC)c1OC [MT-SYK-03]
Tmax ([1]; 100 mg/kg, Table S6, 100 mg/kg PO, male Wistar rats, individual Rat#1-6, read-out: Tmax): 2 h | AUC(0-inf) ([1]; 100 mg/kg, Table S6, 100 mg/kg PO, male Wistar rats, mean of Rat#1-6, read-out: AUCINF, Mean): 2420 ng·h/mL | AUC(0-t) ([1]; 100 mg/kg, Table S6, 100 mg/kg PO, male Wistar rats, mean of Rat#1-6, read-out: AUClast, Mean): 2340 ng·h/mL | Cmax ([1]; 100 mg/kg, Table S6, 100 mg/kg PO, male Wistar rats, mean of Rat#1-6, read-out: Cmax, Mean): 416 ng/mL | half-life ([1]; 100 mg/kg, Table S6, 100 mg/kg PO, male Wistar rats, mean of Rat#1-6): 5.53 h | Tmax ([1]; 100 mg/kg, Table S6, 100 mg/kg PO, male Wistar rats, mean of Rat#1-6, read-out: Tmax, Mean): 1.5 h | AUC(0-inf) ([1]; 100 mg/kg, Table S7, 100 mg/kg PO, male Wistar rats, individual Rat#7-12, read-out: AUCINF): 4250 ng·h/mL | AUC(0-t) ([1]; 100 mg/kg, Table S7, 100 mg/kg PO, male Wistar rats, individual Rat#7-12, read-out: AUClast): 4240 ng·h/mL | Cmax ([1]; 100 mg/kg, Table S7, 100 mg/kg PO, male Wistar rats, individual Rat#7-12, read-out: Cmax): 822 ng/mL | Tmax ([1]; 100 mg/kg, Table S7, 100 mg/kg PO, male Wistar rats, individual Rat#7-12, read-out: Tmax): 1 h | AUC(0-inf) ([1]; 100 mg/kg, Table S7, 100 mg/kg PO, male Wistar rats, mean of Rat#7-12, read-out: AUCINF, Mean): 4270 ng·h/mL | AUC(0-t) ([1]; 100 mg/kg, Table S7, 100 mg/kg PO, male Wistar rats, mean of Rat#7-12, read-out: AUClast, Mean): 4260 ng·h/mL | Cmax ([1]; 100 mg/kg, Table S7, 100 mg/kg PO, male Wistar rats, mean of Rat#7-12, read-out: Cmax, Mean): 864 ng/mL | half-life ([1]; 100 mg/kg, Table S7, 100 mg/kg PO, male Wistar rats, mean of Rat#7-12): 4.06 h | Tmax ([1]; 100 mg/kg, Table S7, 100 mg/kg PO, male Wistar rats, mean of Rat#7-12, read-out: Tmax, Mean): 1 h | AUC(0-inf) ([1]; 100 mg/kg, rats, single oral 100 mg/kg, read-out: AUCinf): 4270 ± 608 ng·h/mL | Cmax ([1]; 100 mg/kg, rats, single oral 100 mg/kg, read-out: Cmax): 864 ng/mL and 1.42 µM | Tmax ([1]; 100 mg/kg, rats, single oral 100 mg/kg, read-out: Tmax): 1 h | AUC(0-inf) ([1]; 200 mg/kg, Table S8, 200 mg/kg PO, male Wistar rats, individual Rat#13-18, read-out: AUCINF): 7500 ng·h/mL | AUC(0-t) ([1]; 200 mg/kg, Table S8, 200 mg/kg PO, male Wistar rats, individual Rat#13-18, read-out: AUClast): 7480 ng·h/mL | Cmax ([1]; 200 mg/kg, Table S8, 200 mg/kg PO, male Wistar rats, individual Rat#13-18, read-out: Cmax): 1180 ng/mL | Tmax ([1]; 200 mg/kg, Table S8, 200 mg/kg PO, male Wistar rats, individual Rat#13-18, read-out: Tmax): 2 h | AUC(0-inf) ([1]; 200 mg/kg, Table S8, 200 mg/kg PO, male Wistar rats, mean of Rat#13-18, read-out: AUCINF, Mean): 7320 ng·h/mL | AUC(0-t) ([1]; 200 mg/kg, Table S8, 200 mg/kg PO, male Wistar rats, mean of Rat#13-18, read-out: AUClast, Mean): 7270 ng·h/mL | Cmax ([1]; 200 mg/kg, Table S8, 200 mg/kg PO, male Wistar rats, mean of Rat#13-18, read-out: Cmax, Mean): 1280 ng/mL | half-life ([1]; 200 mg/kg, Table S8, 200 mg/kg PO, male Wistar rats, mean of Rat#13-18): 5.08 h | Tmax ([1]; 200 mg/kg, Table S8, 200 mg/kg PO, male Wistar rats, mean of Rat#13-18, read-out: Tmax, Mean): 1.33 h | AUC(0-inf) ([1]; 200 mg/kg, rats, single oral 200 mg/kg, read-out: AUCinf): 7320 ± 1460 ng·h/mL | Cmax ([1]; 200 mg/kg, rats, single oral 200 mg/kg, read-out: Cmax): 1280 ng/mL and 2.1 µM | Tmax ([1]; 200 mg/kg, rats, single oral 200 mg/kg, read-out: Tmax): 1.33 ± 0.516 h | k el ([1]; rats, single oral 30 mg/kg): 4.44e-05 s⁻¹ | AUC ([1]; rats, single oral 30 mg/kg): 2340 ± 979 ng·h/mL | k el ([1]; rats, single oral 100 mg/kg): 5.28e-05 s⁻¹ | AUC ([1]; rats, single oral 100 mg/kg): 4260 ± 621 ng·h/mL | k el ([1]; rats, single oral 200 mg/kg): 4.72e-05 s⁻¹ | AUC ([1]; rats, single oral 200 mg/kg): 7270 ± 1490 ng·h/mL | Average plasma concentration after administration in rats ([1]; rats, PO): 200 to 700 nM | MRT24 ([1]; rats, single oral 30 mg/kg): 4.26 ± 0.57 h | τ1/2 ([1]; rats, single oral 30 mg/kg): 5.53 ± 2.38 h | MRT24 ([1]; rats, single oral 100 mg/kg): 4.12 ± 0.56 h | τ1/2 ([1]; rats, single oral 100 mg/kg): 4.06 ± 1.49 h | MRT24 ([1]; rats, single oral 200 mg/kg): 4.89 ± 1.63 h | τ1/2 ([1]; rats, single oral 200 mg/kg): 5.08 ± 2.39 h | remaining activity at 0.5 µM (CAMK1g): 99.2% | remaining activity at 0.5 µM (SIK2; [2]): 16.2% | IC50 (SIK2; [3]): 23 nM and 23.4 nM | remaining activity at 0.5 µM (IKKa/CHUK): 100% | remaining activity at 0.5 µM (NEK11; [2]): 35.9% | IC50 (NEK11; [3]): 26.1 nM | Residual enzymatic activity (FGFR2): 65.1% | remaining activity at 0.5 µM (FGFR2; read-out: Residual enzymatic activity): > 54% | remaining activity at 0.5 µM (JAK2; [2]): 27% | IC50 (JAK2; [3]): 67.2 nM | remaining activity at 0.5 µM (JNK1): 94.3% | remaining activity at 0.5 µM (PYK2): 63.4% | remaining activity at 0.5 µM (PAK3): 87% | remaining activity at 0.5 µM (FYN; [2]): 25.2% | IC50 (FYN; [3]): 20 nM | remaining activity at 0.5 µM (ROS/ROS1; [2]): 25.9% | IC50 (ROS/ROS1; [3]): 34.7 nM | remaining activity at 0.5 µM (CDK9/cyclin K): 95.7%
